Reference: patent US6407067B1, “Salts of thrombin inhibitors” (BASF Aktiengesellschaft, priority 1999, dated 2002)

Experiments:
[1] = Stability test (storage at 70° C., 1 bar, content by HPLC); type: physicochemical
Procedure: The thermal decomposition of the compounds of the general formula I and II has been investigated in a stability test. […]
The substances were stored at 70° C., 1 bar. Measurements were in HPLC % areas

[2] = Crystallinity assessed by Debye-Scherrer photographs; type: physicochemical; settings: isolated solid
Excerpt: The crystallinity of the samples has been assessed on the basis of Debye-Scherrer photographs.

| Compound | Stability on storage in an open vessel (relative content by HPLC) ([1]; 0 days) [HPLC % areas] | Stability on storage in an open vessel (relative content by HPLC) ([1]; 7 days) | Stability on storage in an open vessel (relative content by HPLC) ([1]; 14 days) | Debye-Scherrer photograph (crystallinity) [2] |
| --- | --- | --- | --- | --- |
| CC1=CC(=O)NS(=O)(=O)O1.N=C(N)c1ccc(CNC(=O)[C@@H]2C=CCN2C(=O)[C@@H](CC2CCCCC2)NCC(=O)O)cn1 [Acesulfame salt, N-((Hydroxycarbonyl)methylene)-(R)-cyclohexylalanyl-(S)-3,4-dehydroproline 6-Amidino-3-picolinylamide Acesulfamate] | 100 | 96,7 HPLC % areas | 88,4 HPLC % areas | crystalline |
| CC(=O)O.N=C(N)c1ccc(CNC(=O)[C@@H]2C=CCN2C(=O)[C@@H](CC2CCCCC2)NCC(=O)O)cn1 [Acetate, N-((Hydroxycarbonyl)methylene)-(R)-cyclohexylalanyl-(S)-3,4-d ehydroproline 6-Amidino-3-picolinylamide Acetate] | 100 | 92.6 HPLC % areas | 87.2 HPLC % areas | amorphous |
| N=C(N)c1ccc(CNC(=O)[C@@H]2C=CCN2C(=O)[C@@H](CC2CCCCC2)NCC(=O)O)cn1.O=C(O)/C=C/C(=O)O [Fumarate, N-((hydroxycarbonyl)methylene)-(R)-cyclohexylalanyl-(S)-3,4-dehydroproline 6-Amidino-3-picolinylamide Fumarate] | 100 | 87.9 HPLC % areas | 87.1 HPLC % areas | amorphous |
| N=C(N)c1ccc(CNC(=O)[C@@H]2C=CCN2C(=O)[C@@H](CC2CCCCC2)NCC(=O)O)cn1.O=C1NS(=O)(=O)c2ccccc21 [Saccharin salt, N-((Hydroxycarbonyl)methylene)-(R)-cyclohexylalanyl-(S)-3,4-dehydroproline 6-Amidino-3-picolinylamide Saccharinate] | 100 | 100 HPLC % areas | 101 HPLC % areas | crystalline |
| N-((Hydroxycarbonyl)methylene)-(R)-cyclohexylalanyl-(S)-3,4-dehydroproline 6-Amidino-3-picolinylamide (Betaine) [1st Example] | – | – | – | amorphous |
